Values joined by “and” are separate entries in the source; they are usually repeats but may differ in a detail not shown here. Equal entries are not always repeated. Where two headings read alike, the source gives them in different places.
Experiments:
[1] = ORAC (oxygen radical absorbance capacity) assay; format: biochemical; conditions: Trolox equivalent
Protocol: The ORAC assay is based on the scavenging of peroxyl radicals generated by 2,2′-azobis(2-methylpropioamidine) dihydrochloride (AAPH), which prevents the degradation of the fluorescein probe. The ORAC values were calculated as the area under the curve (AUC) and expressed as µM of Trolox equivalent (TE).

Hs68 cells = assay: MTT cell viability of Hs68 cells with or without LED light; format: cell-based, human; conditions: for IC50: Homo sapiens, light or radiation study, Hs68 cells
Protocol: Data were represented as mean ± SD from at least three independent experiments and analyzed by one-way ANOVA with Tukey’s post hoc test, * p < 0.01, compared with vehicle-treated control.
Hs68 and BALB/c 3T3 cell viability was measured using a 3-[4,5-dimethylthylthiazol-2-yl]-2,5 diphenyl tetrazolium bromide (MTT) assay. The cells were cultured in 24-well plates at a density of 3 × 10^4 cells per well or BALB/c 3T3 cells at a density of 1 × 10^4 cells per well. […] The Hs68 cells were then exposed to LED light (660 nm; 89 W/m^2; 20 J/cm^2) for 37 min 27 s and incubated for 3 h. […] The cells were washed and treated with MTT, after which the plates were incubated at 37 °C in the dark for 2 h. After the formation of formazan, 100 µL of DMSO was added, and the absorbance was measured at 570 nm using a microtiter plate reader (Thermo-scientific, Skanlt software 5.0, Waltham, MA, USA)

[2] = ABTS radical scavenging activity; format: biochemical
Protocol: […] in 2.5 mM potassium persulfate for more than 16 h to develop 7 mM 2,2′-azinobis-(3-ethylbenzothiazoline-6-sulfonic acid diammonium salt) (ABTS), and ethanol was diluted to obtain an absorbance of 0.3 at 620 nm. Each composite sample was diluted by concentration, and 100 μL of the sample was put into each well along with 50 μL each of ABTS reagent and solvent; reacted at room temperature for 10 min, and absorbance was measured at 620 nm. ABTS activity inhibition (%) = 100 − [test group-blank]/(control group-blank) × 100]

[3] = dark, read-out: Dark Condition (EC50, μM) ABTS radical scavenging

EC50 ([2]; LED light, read-out: LED Condition (EC50, μM) ABTS radical scavenging) | EC50 [2, 3] | SMILES | ORAC LED Condition (TE, μM) ([1]; LED 20 J/cm^2, 1 μM compound) [µM] | ORAC LED Condition (TE, μM) ([1]; LED 20 J/cm^2, 10 μM compound) [µM] | ORAC Dark Condition (TE, μM) ([1]; 1 μM compound) | ORAC Dark Condition (TE, μM) ([1]; 10 μM compound) | IC50 (Hs68 cells; LED 660 nm 20 J/cm^2, MTT, read-out: Phototoxicity (IC50)) [µM] | IC50 (Hs68 cells; without LED irradiation, MTT, read-out: Dark Toxicity (IC50)) [µM] | cytotoxicity for Hs68 cells (Hs68 cells; dark, up to 1000 nM)
~19.8 µM and 19.8 µM | ~13.6 µM and 13.6 µM | C=Cc1c(C)c2cc3nc(c(CC(=O)O)c4[nH]c(cc5nc(cc1[nH]2)C(C)=C5CC)c(C)c4C(=O)O)[C@@H](CCC(=O)O)[C@@H]3C [Ce6, Chlorin e6] | 22.11 | 53.85 | 18.5 µM | 47.72 µM | 0.615 | ≥ 1 | almost no cytotoxicity
– | 60.3 ± 9.51 µM | NCC(=O)CCC(=O)O [5-ALA, 5-Aminolevulinic acid, reference compound] | – | – | undetectable | undetectable | – | – | –

From publication PMC10487708, “Chlorin E6-Curcumin-Mediated Photodynamic Therapy Promotes an Anti-Photoaging Effect in UVB-Irradiated Fibroblasts” (International Journal of Molecular Sciences, 2023)
